Results taken from patent publication US20240360119A1, “SMALL MOLECULE UREA DERIVATIVES AS STING ANTAGONISTS” (CURADEV PHARMA PVT. LTD., priority 2021, published 2024).

Test system: STING (IRF pathway reporter in THP1-Dual™ cells, THP-1 (HAQ))
Assay: Reporter gene expression assay in THP-1 cells (THP1-Dual, IRF pathway Lucia luciferase, 2′,3′-cGAMP stimulation)
Assay type: cell-based, human
Settings: Homo sapiens, 10 min preincubation, 5 μM 2′,3′-cGAMP, 20 hr, IRF pathway luciferase (QUANTI-Luc), IC50 range class
Protocol: THP1-Dual™ cells (Invivogen) were derived from the human THP-1 monocyte cell line by stable integration of two inducible reporter constructs. As a result, THP1-Dual™ cells allow the simultaneous study of the IRF pathway, by assessing the activity of a secreted luciferase (Lucia) and the NF-κB pathway, by monitoring the activity of secreted SEAP. 5×10^4 THP1-Dual™ cells were seeded in 384-well plates in growth medium and preincubated with novel compounds for 10 minutes followed by stimulation with 5 μM 2′,3′-cGAMP. After 20 hr of stimulation the supernatant was removed and the IRF pathway reporter protein was readily measured in the cell culture supernatant using QUANTI-Luc™ (Invivogen), a luciferase detection reagent on a Spectramax i3X luminometer.
In the tables below, IC50 value ranges for exemplary compounds are given. The IC50 ranges are indicated as “A” for values less than or equal to 1 μM, “B” for values greater than 1 μM and less than or equal to 10 μM, and “C” for values greater than 10 μM.

IC50 | Compound
1 to 10 µM | COCCN(C)C(=O)CC(NC(=O)Nc1ccc2cc[nH]c2c1)c1ccc2c(c1)N(Cc1ccccc1)CCS2 (centres unmarked) [Example 33, 3-(3-(1H-indol-6-yl)ureido)-3-(4-benzyl-3,4-dihydro-2H-benzo[b][1,4]thiazin-6-yl)-N-(2-methoxyethyl)-N-methylpropanamide]
> 10 µM | O=C(CC(NC(=O)Nc1ccc2cc[nH]c2c1)c1ccc2c(c1)N(Cc1ccccc1)CCS2)Nc1cccnc1 (centres unmarked) [Example 34, 3-(3-(1H-indol-6-yl)ureido)-3-(4-benzyl-3,4-dihydro-2H-benzo[b][1,4]thiazin-6-yl)-N-(pyridin-3-yl)propanamide]
1 to 10 µM | O=C(CC(NC(=O)Nc1ccc2cc[nH]c2c1)c1ccc2c(c1)N(Cc1ccccc1)CCS2)NCCO (centres unmarked) [Example 35, 3-(3-(1H-indol-6-yl)ureido)-3-(4-benzyl-3,4-dihydro-2H-benzo[b][1,4]thiazin-6-yl)-N-(2-hydroxyethyl)propanamide]
≤ 1 µM | C=CCC(NC(=O)Nc1ccc2cc[nH]c2c1)c1ccc2c(c1)N(Cc1c(F)cccc1Cl)CCS2 (centres unmarked) [Example 36, 1-(1-(4-(2-chloro-6-fluorobenzyl)-3,4-dihydro-2H-benzo[b][1,4]thiazin-6-yl)but-3-en-1-yl)-3-(1H-indol-6-yl)urea]
1 to 10 µM | C=CCC(NC(=O)Nc1c[nH]c2ccccc12)c1ccc2c(c1)N(Cc1ccccc1)CCS2 (centres unmarked) [Example 37, 1-(1-(4-benzyl-3,4-dihydro-2H-benzo[b][1,4]thiazin-6-yl)but-3-en-1-yl)-3-(1H-indol-3-yl)urea]
